Reference: US11213512B2, “Bis-amino acid based compound and use thereof” (THE CURATORS OF THE UNIVERSITY OF MISSOURI, priority 2016, dated 2022)
Like-named read-outs stand apart in the source and are kept apart here.

Legend:
[1] = system: S. aureus (ATCC Accession No. 29213); assay: MIC, CLSI/NCCLS broth microdilution; type: cell-based, Staphylococcus aureus; settings: Staphylococcus aureus, read-out: Minimal Inhibitory Concentration (MIC) S. aureus
Experimental: Two different strains of E. coli (Gram-negative) were used. The laboratory strain of E. coli, K-12 (ATCC Accession No. 700926), was used for preliminary MIC determinations. The tetracycline resistant strain of E. coli (Tet^R) was prepared by transforming competent JM109 E. coli (Promega) with the pBR322 plasmid (Carolina Biologicals) using the manufacturers protocol. This plasmid contains two resistance genes: the tetA gene expresses the tetracycline resistance TetA efflux pump (Sapunaric and Levy, Microbiol. 2005, 151, 2315-2322) and the amp^R gene expresses a β-lactamase enzyme (Bolivar, et al; Gene 1977, 2, 95-113) that cleaves the four membered ring of penicillin derivatives. The resulting E. coli, which we designate Tet^R E. coli, is both tetracycline and ampicillin resistant. The TetA efflux pump belongs to the major facilitator superfamily (MFS), spans the cytoplasmic membrane, and transports tetracycline from the cell cytoplasm to the periplasmic space (Thanassi, et al., J. Bacteriol. 1995, 177, 998-1007). This active efflux utilizes the proton gradient as an energy source (Levy, Antimicrob. Agents Chemother. 1992, 36, 695-703). One Gram-positive strain, S. aureus (ATCC Accession No. 29213), used for MIC study expresses the MFS type NorA efflux pump and is methicillin sensitive. MFS type efflux pumps are clinically relevant for resistance in both Gram-positive and Gram-negative bacteria (Sun, et al., Biochem. Biophys. Res. Commun. 2014, 453, 254-267). A Staphylococcus aureus 1199B strain that overexpresses the NorA efflux pump was also used to conduct checkerboard experiments (see, Example 8 below). This strain of S. aureus 1199B is resistant to both norfloxacin and ethidium bromide.
K-12 E. coli and S. aureus were acquired from ATCC. The S. aureus strain was used in the BSL-2 facility. K-12 E. coli was grown in L. B. Miller media (Sigma-Aldrich) and S. aureus was grown in cation adjusted MHII media (Sigma-Aldrich). Tet^R E. coli was grown in L. B. Miller media containing 100 μg/mL Ampicillin.
MIC experiments were performed as described in the Clinical and Laboratory Standards Institute (CLSI) standard microdilution protocols. Bacteria was grown overnight from one CFU in media without antibiotics. Tet^R E. coli was grown in media containing 100 μg/mL Ampicillin. On the day of experiment, bacteria were knocked back to O.D. 600 nm=0.550 in the same media. These exponential phase bacteria were then diluted in antibiotics-free media to get […]. In a 96-well plate either L. B. Miller or MHII media was added followed by serially diluted compounds 1-11, tetracycline, or ampicillin. All the tryptophan based compounds were dissolved in DMSO and the final concentration of DMSO in each well was kept constant at 0.5% (v/v).
For the combination experiments, first, the BT or control was added to the media in the well followed by the antibiotics. The contents of the well were mixed before adding 20 μL of bacteria to get 4×10^5 CFU/mL per well. The plates were incubated at 37° C., 200 RPM for 24 hours before collecting results on the Biotek Cytation 3 plate reader. No more than three plates were stacked on top of each other at a time. Optical density of the wells was determined at λ=600 nm. Cells alone were considered as 0% inhibition and media alone was considered as 100% inhibition. Any inhibition greater than 80% was considered as the MIC. The results were reproduced three times before reporting.
All minimum inhibitory concentration (MIC) values for compounds 1-11 were determined according to the methods prescribed by the National Committee for Clinical Laboratory Standards (NCCLS, Methods for Dilution Antimicrobial Susceptibility Tests for Bacteria that grow aerobically; National Committee for Clinical Laboratory Standards 2000, 5th Edition, M7-A5). […]

HeLa cells = assay: Cytotoxicity to mammalian cells, XTT assay; type: cell-based, human; settings: 24 h; for cytotoxicity to HeLa (in words): at MIC against Tet^R E. coli (2: 48, 7: 128, 10: 10 μM); for survival of HeLa (in words): two-fold increase over MIC concentration
Experimental: (§1) It was initially hypothesized that antimicrobial activity resulted from membrane disruption. Membrane active compounds are often cytotoxic to mammalian cells (Shai, Biopolymers 2002, 66, 236-48; Shai, et al., Curr. Protein Pept. Sci. 2006, 7, 479-86). The survival of three mammalian epithelial cell lines was assayed for 2, 3, 5, and 10. […] The cell lines studied were human embryonic kidney (HEK-293), human cervix epithelial (HeLa, ATCC Accession No. CCL-2), and Cercopithecus aethiops kidney (Cos-7, ATCC Accession No. CRL 1651). HeLa cells were acquired from ATCC. Cos-7 and HEK-293 cells were donated by colleagues. Cell lines were regularly maintained in growth media containing DMEM (ATCC), 10% fetal bovine serum (FBS, ATCC) and 1% penicillin-streptomycin solution (ATCC). Adherent HEK-293, HeLa and Cos-7 cells were trypsinized using 0.25% (w/v) trypsin-EDTA (Sigma-Aldrich), suspended in a fresh media and diluted to get a concentration of 3×10^5 cells/ml. Cells were seeded in a 96-well plate (100 μL/well) to get 3×10^4 cells/well. The plates were incubated for 24 hours at 5% CO2 and 37° C. to reach a confluency of 80-90%.
(§2) In a sterile 1.5 mL micro-centrifuge tube, compounds 2, 3, 5, 6, 7 and 10 (0.5% DMSO) were mixed with assay media (DMEM+10% FBS) and serially diluted by 2-fold each to get 2[MIC], [MIC], ½[MIC] and ¼ [MIC] concentrations. A control containing 0.5% DMSO was also prepared. After 24 hours, the spent media in the 96-well plate containing HEK-293, HeLa and Cos-7 cells (90% confluency) was replaced with 100 μL media containing the compounds 2, 3, 5, 6, 7 and 10 at various concentrations. The cells were incubated at 37° C. and 5% CO2 for 24 hours before performing XTT assay (Sigma-Aldrich). The XTT assay was performed according to the manufacturer's protocol. After 24 hours of treatment with compounds, the media was replaced with PBS and 25 μL XTT was added to each well. The XTT assay works by the reduction of tetrazolium compound by alive cells to the colored soluble formazan product. The absorbance of the product was measured at 450 nm (XTT) and 690 nm (background). Percent survival was calculated by comparing the average absorbance of cells treated with compounds 2, 3, 5, 6, 7, and 10 to that of cells alone. Two replicates for each treatment were determined. Average percent survival and standard deviation were calculated.
(§3) Cells were cultured for 24 h in 96-well plates and treated with media containing concentrations using [MIC] and [MIC]×2 determined previously for Tet^R E. coli. The number of surviving cells was determined using an XTT assay (Sigma-Aldrich); the results are represented as percent survival in FIG. 2. Cells alone were used as controls and established 100% survival. The data represent two replicates of three trials and the error bars represent the standard deviation.

Cos-7 cells = assay: Cytotoxicity to mammalian cells, XTT assay; type: cell-based, Cercopithecus aethiops; settings: 24 h; for percent survival Cos-7: at MIC against Tet^R E. coli (2: 48, 3: 28, 5: 56, 6: 120, 7: 128, 10: 10 μM); for cytotoxicity to Cos-7 (in words): at MIC against Tet^R E. coli (2: 48, 7: 128, 10: 10 μM); for survival of Cos-7 (in words): two-fold increase over MIC / highest concentrations tested
Experimental: as §1, §2, §3

[2] = ATCC29213, >80% growth inhibition, 24 h, 37° C.
[3] = at MIC against Tet^R E. coli (2: 48, 3: 28, 5: 56, 6: 120, 7: 128, 10: 10 μM)
[4] = at twice the MIC (FIG. 3 legend: 2: 96, 3: 56, 5: 112, 6: 240, 7: 256, 10: 20 μM)

With Cl.Cl.N[C@@H](Cc1c[nH]c2ccccc12)C(=O)Nc1ccc(NC(=O)[C@@H](N)Cc2c[nH]c3ccccc23)cc1 [Compound 6, (2S,2′S)-1,1′-(1,4-Phenylenebis(azanediyl))bis(3-(1H-indol-3-yl)-1-oxopropan-2-aminium) chloride] the MIC [1, 2] was 128 µM, the “percent survival HeLa” value (HeLa cells; [3]) was 100% and the “percent survival HeLa” value (HeLa cells; [4]) was 29%. For the same molecule, the “percent survival Cos-7” value (Cos-7 cells) was 100%.

For Cl.Cl.N[C@H](Cc1c[nH]c2ccccc12)C(=O)Nc1cccc(NC(=O)[C@H](N)Cc2c[nH]c3ccccc23)c1 [Compound 3, (2R,2′R)-1,1′-(1,3-Phenylenebis(azanediyl))bis(3-(1H-indol-3-yl)-1-oxopropan-2-aminium) chloride], the MIC [1, 2] was 32 µM, the “percent survival HeLa” value (HeLa cells; [3]) was 100% and the “percent survival HeLa” value (HeLa cells; [4]) was 29%. The “percent survival Cos-7” value (Cos-7 cells) was 100%.

With Cl.Cl.N[C@@H](Cc1c[nH]c2ccccc12)C(=O)Nc1cccc(NC(=O)[C@@H](N)Cc2c[nH]c3ccccc23)c1 [Compound 2, (2S,2′S)-1,1′-(1,3-Phenylenebis(azanediyl))bis(3-(1H-indol-3-yl)-1-oxopropan-2-aminium) chloride] the MIC [1, 2] was 32 µM, the “percent survival HeLa” value (HeLa cells; [3]) was 100% and the “cytotoxicity to HeLa (in words)” value (HeLa cells) was “no cytotoxicity”. For the same molecule, the “survival of HeLa (in words)” value (HeLa cells) was “unaffected”, the “percent survival Cos-7” value (Cos-7 cells) was 100% and the “cytotoxicity to Cos-7 (in words)” value (Cos-7 cells) was “no cytotoxicity”. For the same molecule, the “survival of Cos-7 (in words)” value (Cos-7 cells) was “unaffected”.

With Cl.Cl.N[C@@H](Cc1c[nH]c2ccccc12)C(=O)NCCCNC(=O)[C@@H](N)Cc1c[nH]c2ccccc12 [Compound 7, (2S,2′S)-1,1′-(Propane-1,3-diylbis(azanediyl))bis(3-(1H-indol-3-yl)-1-oxopropan-2-aminium) chloride] the MIC ([1]; ATCC29213, 24 h) was over 128 µM, the “cytotoxicity to HeLa (in words)” value (HeLa cells) was “moderately toxic” and the “cytotoxicity to Cos-7 (in words)” value (Cos-7 cells) was “minimally toxic”.

With Cl.Cl.N[C@@H](Cc1c[nH]c2ccccc12)C(=O)Nc1ccccc1NC(=O)[C@@H](N)Cc1c[nH]c2ccccc12 [Compound 5, (2S,2′S)-1,1′-(1,2-Phenylenebis(azanediyl))bis(3-(1H-indol-3-yl)-1-oxopropan-2-aminium) chloride] the MIC [1, 2] was 32 µM, the “percent survival HeLa” value (HeLa cells; [3]) was 100% and the “survival of HeLa (in words)” value (HeLa cells) was “unaffected”. For the same molecule, the “percent survival Cos-7” value (Cos-7 cells) was 100% and the “survival of Cos-7 (in words)” value (Cos-7 cells) was “unaffected”.

For Cl.Cl.N[C@H](Cc1c[nH]c2ccccc12)C(=O)NCCCCCCCCCCCCNC(=O)[C@@H](N)Cc1c[nH]c2ccccc12 [Compound 10, (S)-1-((12-((R)-2-Ammonio-3-(1H-indol-3-yl)propanamido)dodecyl)amino)-3-(1H-indol-3-yl)-1-oxopropan-2-aminium chloride], the MIC [1, 2] was 4 µM, the “cytotoxicity to HeLa (in words)” value (HeLa cells) was “moderately toxic” and the “cytotoxicity to Cos-7 (in words)” value (Cos-7 cells) was “minimally toxic”.
